According to patent US9980940B2, “Composition for the treatment of neuropathies and/or neuropathic pain” (Kolinpharma S.p.A., priority 2014, dated 2018):
Entries after “also recorded” stand apart in the source; their conditions may differ. Read-outs that look alike come from different tables or passages of the source.

Columns and labels:
THP-1 human monocytes = conditions: 24 h
Description: (§1) The MTT assay is a colorimetric cytotoxicity assay that makes it possible to test cellular proliferation and vitality based on the efficiency of mitochondrial respiration. MTT (3-(4,5-dimethylthiazol-2-yl)-2,5-diphenyl tetrazolium bromide) is a tetrazolium salt that is reduced by the highly reducing environment in the mitochondria of living cells by the action of mitochondrial dehydrogenase. Reduction of MTT causes formation of crystals of formazan that give the characteristic purple coloration to the mitochondria of living cells. […] Thus, although it is a test that evaluates cellular respiration, the MTT assay is considered to be an excellent method for determining cellular vitality.
As preparation for the test, the cells were sown uniformly in 96-well plates at a density of 5×10^4 cells per well and incubated at 37° C., with 5% CO2, and simultaneously, the cells were treated following serial dilutions (1:2) in order to identify the maximum non-cytotoxic concentration for each component.
The treatment was carried out for 24 hours. At the end, after brief washing in PBS, 20 μl of MTT (stock 5 mg/ml) in PBS was added to the THP-1 cells for 2 hours at 37° C. At the end of the incubation time, after removal from the medium and washing in PBS, 100 μl of DMSO was added for solubilization of the formazan crystals. Spectrophotometric reading was performed with a microplate reader (Tecan Sunrise) at a wavelength of 570 nm. The cellular vitality was calculated by measuring the optical density of the concentrations tested relative to the control (untreated cells).
as §1, with “leads to” for “causes”, “impart” for “give”, “regarded as” for “considered to be”
As preparation for the test, the cells were sown uniformly in 96-well plates at a density of 5×10^4 cells per well and incubated at 37° C., with 5% CO2 and at the same time the cells were treated with serial dilutions (1:2) in order to identify the maximum non-cytotoxic concentration for each component.
The treatment was carried out for 24 hours. At the end, after brief washing in PBS, 20 μl of MTT (stock 5 mg/ml) in PBS was added to the THP-1 cells for 2 hours at 37° C. At the end of the incubation time, after removal from the medium and washing in PBS, 100 μl of DMSO was added to dissolve the formazan crystals. Spectrophotometric reading was performed with a microplate reader (Tecan Sunrise) at a wavelength of 570 nm. The cellular vitality was calculated by measuring the optical density of the concentrations tested relative to the control (untreated cells).

[1] = test system: ROS produced by the THP-1 cells; experiment: ROS assay (H2DCF-DA, flow cytometry), Example 2; type: cell-based, human; conditions: 24 h treatment then H2O2 100 μM 2 h; concentrations indicated in Table 7
Protocol: The antioxidant activity of the individual components and synergy between them was evaluated as efficiency of neutralization of the ROS produced by the THP-1 cells after application of an oxidizing agent: hydrogen peroxide (H2O2) at a concentration of 100 μM. The ROS were measured by the method described in Boulton S., Anderson A., Swalwell J., et al., 2011 Implications of using the fluorescent probes, dihydrorhodamine 123 and 2′,7′-dichlorodihydrofluorescein diacetate, for the detection of UV-A induced reactive oxygen species. […] The DCF produced is then quantified by reading with a flow cytometer and is proportional to the quantity of ROS present in the sample under examination. […]
After removal of the H2DCF-DA solution, the cells were washed, collected and the fluorescence of the DCF was measured by analysis with a Coulter Epics XL flow cytofluorimeter. At least ten thousand cells were analysed for each sample and the mean fluorescence intensity was quantified by the XL2 software of the instrument.
The parameter considered is MFI, mean fluorescence intensity, i.e. the geometric mean of the fluorescence intensity of the cells in which H2DCF-DA has been transformed into the fluorescein-treated DCF form, which is proportional to the amount of ROS per sample. […]

IL-1β [2] = experiment: ELISA of IL-1β after LPS, Example 3; type: cell-based, human
Protocol: (§2) Possible anti-inflammatory activity of the individual components and synergy between them in THP-1 cells was evaluated after 24 hours of treatment and stimulation with a known pro-inflammatory agent (LPS), measuring expression of IL-1β and TNFα using an ELISA kit (Thermo Fisher Scientific, Inc.).
(§3) As preparation for the test, the THP-1 cells were sown uniformly in a 96-well plate at a density of 5×10^4 cells/well and treated with the maximum concentrations found to be non-cytotoxic in the MTT assay; untreated cells were used as negative control. Treatment was carried out at 37° C. at 5% CO2 for 20 h; then the sample was stimulated with LPS (component of the bacterial outer membrane, considered to be an inflammatory agent) for 4 hours.
(§4) At the end of the treatment, the supernatants were collected and used for coating a pretreated ELISA plate, supplied with the kit.
(§5) For analysis of the expression of both markers under examination (IL-1β and TNFα), a special kit is used that is based on the “sandwich” ELISA system in which a 96-well plate is coated with a monoclonal antibody specific to the particular cytokine.
The standards, prepared on the basis of the instructions in the protocol and used for constructing the calibration curve, and the samples are added to the wells and the cytokine of interest binds the capture antibody immobilized on the bottom of the well. Next, the biotinylated anti-cytokine antibody is added to the wells so that the biotinylated antibody-antigen-antibody “sandwich” is formed. […] Addition of a solution of sulphuric acid turns the colour of the solution from blue to yellow, blocking the reaction and allowing accurate reading of the absorbance of the samples at 450 nm.
The absorbance was then read at 450 and 550 nm using a microplate reader (Tecan Sunrise). The values obtained from the reading at 550 nm were subtracted from those at 450 nm to correct the optical imperfections of the microplate. […]

TNFα [3] = experiment: ELISA of TNFα after LPS, Example 3; type: cell-based, human
Protocol: as §2, §3, §4, §5
The standards, prepared on the basis of the instructions in the protocol and used for constructing the calibration curve, and the samples are added to the wells and the cytokine of interest binds the capture antibody immobilized on the bottom of the well. […] Addition of a solution of sulphuric acid turns the colour of the solution from blue to yellow, blocking the reaction and allowing accurate reading of the absorbance of the samples at 450 nm.
The absorbance was then read at 450 and 550 nm using a microplate reader (Tecan Sunrise). The values obtained from the reading at 550 nm were subtracted from those at 450 nm to correct the optical imperfections of the microplate.
The possible anti-inflammatory action of the individual components of Xinepa and the possible synergy were evaluated by measuring the levels of TNFα following stimulation with LPS. […]

[4] = Solubility / dissolution of Xinepa and its ingredients
THP-1 cell line = conditions: curcumin (Sigma, commercial); Hsu et al. 2008; cited from earlier work
THP-1 cells = experiment: MTT assay (Assay 0), cellular vitality; type: cell-based, human; conditions: positive controls at 100 μM
Protocol: The cells were kept in an incubator at 37° C. and 5% CO2 and sown every 3-4 days at a density of about 5×10^5 cells/ml.
This colorimetric assay is based on the transformation of tetrazolium salt MTT (yellow) to formazan (violet), by the reductase succinate-tetrazolium system, which belongs to the respiratory chain of the mitochondria and is only active in metabolically active cells. Briefly, the cells grown in a 96-well plate were incubated with the solution of MTT for 4 hours. […] The absorbance measured correlates directly with the number of live cells.
To exclude a possible toxic effect attributable to the incubation protocol selected, cellular vitality was quantified by the MTT assay.

TNFα [5] = experiment: ELISA assay (Assay 1a), release of TNFα; type: cell-based, human; conditions: positive controls; LPS 1 μg/ml 2 h
IL-1β [6] = experiment: ELISA assay (Assay 1a), release of IL-1β; type: cell-based, human; conditions: positive controls; LPS 1 μg/ml 2 h
[7] = test system: reactive oxygen species (ROS) in THP-1 cells; experiment: Intracellular levels of ROS (Assay 2), CellROX Deep Red; type: cell-based, human; conditions: positive control; 100 mM H2O2 2 h; not significantly different from its vehicle control
Protocol: The operating principle of the probe is based on the fact that it is not fluorescent in the reduced state, whereas following oxidation it develops a fluorescent signal with excitation peak at 640 nm and emission peak at 665 nm. Briefly, at the end of the period of stimulation with H2O2, the cells were incubated with CellROX® Deep Red Reagent at a final concentration of 5 μM in the medium at 37° C. for 30 min. The nuclei were labelled with Hoechst33342 and the fluorescences of both channels (CellROX® Deep Red and DAPI) were read on the GloMax plate fluorometer (Promega Italy). The fluorescence signals relating to the ROS were normalized for the signal of Hoechst33342 to cancel the variability in the fluorescence signal read due to the number of cells present in each well.
The same plates were then also acquired in the confocal microscope for the purpose of obtaining representative images relating to quantifications of the various treatments.

[8] = 24-hour treatment and stimulation with LPS
[9] = relative to stimulated untreated cells (Ctrl + LPS = 100)

## CC(=O)O[C@H](CC(=O)[O-])C[N+](C)(C)C [Component C]
THP-1 human monocytes; N-Acetyl-L-carnitine 0.25 mg/ml
  Cellular vitality (%): 102.221%
THP-1 human monocytes; N-Acetyl-L-carnitine 0.5 mg/ml
  Cellular vitality (%): 97.615%
THP-1 human monocytes; N-Acetyl-L-carnitine 1 mg/ml
  Cellular vitality (%): 90.355%
THP-1 human monocytes; N-Acetyl-L-carnitine 2 mg/ml
  Cellular vitality (%): 91.422%
THP-1 human monocytes; N-Acetyl-L-carnitine 4 mg/ml
  Cellular vitality (%): 60.848%
THP-1 human monocytes; components A, B, C tested individually (lipoic acid, vitamin C, vitamin E acetate together as component B), mortality not greater than 30%
  Maximum non-cytotoxic concentration: 2 mg/mL
THP-1 human monocytes; each component when tested together (A + B + C)
  Non-cytotoxic concentration: 0.01 mg/mL
[1]
  levels of ROS: comparable to those of the positive control
IL-1β [2]; [8]
  levels of IL-1β vs stimulated control: increase
IL-1β [2]; 24 h treatment at non-cytotoxic concentrations incl. LPS 4 h, Ctrl + LPS 4.84
  IL-1β: 4.98 pg/mL
IL-1β [2]; [9]
  IL-1β (%): 102.91%
TNFα [3]; [8]
  levels of TNFα vs stimulated control: levels lower than the stimulated control
TNFα [3]; 24 h treatment at non-cytotoxic concentrations, LPS 4 h, Ctrl + LPS 424.12
  TNFα: 386.98 pg/mL
TNFα [3]; [9]
  TNFα (%): 91.24%
[4]; RPMI medium with 10% FBS, L-glutamine 2 mM and antibiotics
  dissolution in complete medium: did not cause problems in dissolution; also recorded: did not cause problems of dissolution

## O=C(O)CCCCC1CCSS1 (stereo not drawn) [Lipoic acid, Alpha-lipoic acid]
THP-1 human monocytes; human
  Maximum non-cytotoxic concentration: 0.3750 mg/mL

## COc1cc(/C=C/C(=O)CC(=O)/C=C/c2ccc(O)c(OC)c2)ccc1O [curcumin, (1E,6E)-1,7-bis(4-hydroxy-3-methoxyphenyl)-hepta-1,6-diene-3,5-dione]
THP-1 cell line
  non-cytotoxic concentration found for curcumin: 10 µM

## CC(C)Cc1ccc(C(C)C(=O)O)cc1 (stereo not shown) [ibuprofen]
THP-1 cells
  toxicity on the cells (MTT): did not identify any effect of toxicity
TNFα [5]
  release of TNFα relative to control: did not cause any reduction
IL-1β [6]
  release of IL-1β relative to control: did not have any effect

## CS(=O)(=O)Nc1ccc([N+](=O)[O-])cc1Oc1ccccc1 [nimesulide]
THP-1 cells
  toxicity on the cells (MTT): did not identify any effect of toxicity
TNFα [5]
  release of TNFα relative to control: showed anti-inflammatory action
IL-1β [6]
  release of IL-1β relative to control: effective in reducing the release of IL-1β

## Cc1cc2nc3c(=O)[nH]c(=O)nc-3n(C[C@H](O)[C@H](O)[C@H](O)CO)c2cc1C [vitamin B2, riboflavin]
[4]; water vs alcohols or organic solvents
  solubility of individual ingredients: soluble in water but not in alcohols

## tocopherol [vitamin E]
[7]
  antioxidant action (ROS levels): partial antioxidant action
